Results on 2 compounds are retold here after US8337881B2, “Cyanoacrylate monomer formulation containing diiodomethyl-p-tolylsulfone” (Ethicon, Inc., priority 2003, dated 2012).

The conditions of data set [1]: aqueous; cited from earlier work.
The nature of data set [2]: Solubility of DIMPTS in cyanoacrylate monomer. The format is physicochemical. An excerpt:
Diiodomethyl-p-tolylsulfone (DIMPTS) is soluble in cyanoacrylate monomer at least up to 15,000 ppm (wt./wt.). Accordingly, formulations may herein have a concentration of diiodomethyl-p-tolylsulfone ranging from about 500 (0.05%) to about 10,000 ppm (1.00%), preferably from about 700 (0.07%) to about 7,000 ppm (0.70%), more preferably the concentration of diiodomethyl-p-tolylsulfone is about 2800 ppm (0.28%).

For data set [3], the system named is Enterococcus faecium 700221. Nature of the data set: MIC/MBC of pure DIMPTS, tube dilution procedure. Type of data set: cell-based. As to conditions: preliminary evaluation. On the procedure: (§1) Minimum inhibitory concentration is the lowest concentration that prevents the development of visible growth after a period of incubation. Minimum bactericidal concentration is the lowest concentration that achieves a 1000 fold or greater reduction in the original bacterial inoculum. The minimum inhibitory concentration (MIC) and minimum bactericidal concentration (MBC) is evaluated using tube dilution procedure. The effectiveness of the antimicrobial property of pure […] is described in terms of minimum inhibitory concentration (MIC) and minimum bactericidal concentration (MBC) in Table II (A).

Data set [4] concerns Staphylococcus aureus 33591. Nature of the data set: MIC/MBC of pure DIMPTS, tube dilution procedure. Type of data set: cell-based. The note with it: preliminary evaluation. As to the method:
as §1

Data set [5] concerns Pseudomonas aeruginosa 9027. Nature of the data set: MIC/MBC of pure DIMPTS, tube dilution procedure. The note with it: preliminary evaluation. The format is cell-based. As to the method: (§2) Minimum inhibitory concentration is the lowest concentration that prevents the development of visible growth after a period of incubation. Minimum bactericidal concentration is the lowest concentration that achieves a 1000 fold or greater reduction in the original bacterial inoculum. The minimum inhibitory concentration (MIC) and minimum bactericidal concentration (MBC) is evaluated using tube dilution procedure.
(§3) The effectiveness of the antimicrobial property of pure DIMPTS is described in terms of minimum inhibitory concentration (MIC) and minimum bactericidal concentration (MBC) in Table II (A).

Data set [6] deals with Escherichia coli 8739. Nature of the data set: MIC/MBC of pure DIMPTS, tube dilution procedure. The note with it: preliminary evaluation. Type of data set: cell-based. On the procedure:
as §2, §3

Data set [7] concerns Streptococcus agalactiae 624. Nature of the data set: MIC/MBC of pure DIMPTS, tube dilution procedure. The note with it: preliminary evaluation. The format is cell-based. As to the method:
as §2, §3

The subject of data set [8] is Staphylococcus aureus 6538. Briefly: MIC/MBC of pure DIMPTS, tube dilution procedure. Type of data set: cell-based. The note with it: preliminary evaluation. On the procedure: as §2, §3
For data set [9], the system named is Staphylococcus epidermidis 51625. Briefly: MIC/MBC of pure DIMPTS, tube dilution procedure. Type of data set: cell-based. The note with it: preliminary evaluation. On the procedure:
as §2, §3

Data set [10] relates to Bacillus subtilis 902173. Nature of the data set: MIC/MBC of pure DIMPTS, tube dilution procedure. Type of data set: cell-based. The note with it: preliminary evaluation. On the procedure:
as §2, §3

Data set [11] relates to Candida albicans 10231. Briefly: MIC/MBC of pure DIMPTS, tube dilution procedure. The format is cell-based. On the procedure: as §2, §3

Read-outs that look alike come from different tables or passages of the source.

The pKa is the negative logarithm of the acid dissociation constant. For `[O-][Cl+3]([O-])([O-])O` [perchloric acid], the pKa in [1] is recorded as −5.0.
In the case of `Cc1ccc(S(=O)(=O)C(I)I)cc1` [DIMPTS, diiodomethyl-p-tolylsulfone], the “soluble in cyanoacrylate monomer” value in data set [2] is on record as ≥ 15,000 ppm (wt./wt.). Moreover, the MIC in data set [3] was 50 µg/mL; in data set [4], 12.5 µg/mL; in data set [5], more than 100 µg/mL; in [6], 100 µg/mL; in data set [7] it was 50 µg/mL; in [8] it was 100 µg/mL. Moreover, the MIC in [9] was 25 µg/mL; in [10], 50 µg/mL; in data set [11] (Candida albicans 10231, preliminary evaluation, read-out: MIC), 5 µg/mL; in [11] (Candida albicans, 10231, statement in description, strain not given, read-out: minimum inhibitory concentration against C. albicans), approximately 5 µg/mL. For the same compound, the MBC is less than 250 µg/mL in data set [4]; less than 250 µg/mL in data set [6]; 125 to 250 µg/mL in data set [7]; less than 250 µg/mL in [8]; less than 100 µg/mL in data set [9]; 50 to 100 µg/mL in [10]. In data set [11] (Candida albicans 10231, preliminary evaluation), the MBC was 10 to 100 µg/mL.
